Series [1] is described as follows: Compound concentration in brain, spleen and plasma samples of GCase enhancement study. It is filed as in vivo, mice (C57BL/6). The conditions noted are these: nine doses; for Concentration: 24 hours after last dose. As to the method: (§1) The ability of orally administered test compounds (the hydrochloride salt form of Compound A and Compound B) to elevate GCase levels as compared to reference compound, IFG-tartrate, was assessed in mice. […] Seven animals were used per dose. The dosing solutions were prepared in water. Compounds were administered over 2 weeks as follows: week 1, Mon-Fri (On), Sat-Sun (Off); week 2, Mon-Thu (On); necropsy on Friday. Thus, a total of 9 doses (dosing solutions prepared fresh every day) were given to each mouse, with a 24-hour washout between the last dose and necropsy.
(§2) Plasma was collected by spinning blood at 2700 g for 10 minutes at 4° C. Liver, spleen, lung, and brain tissues were removed, washed in cold PBS, blotted dry, flash frozen on dry ice, and stored at −80° C. until analysis. GCase levels were measured by homogenizing approximately 50 mg tissue in 500 μL McIlvane (MI) buffer (100 mM sodium citrate, 200 mM sodium phosphate dibasic, 0.25% sodium taurocholate, and 0.1% Triton X-100, pH 5.2) at pH 5.2 for 3-5 seconds on ice with a micro homogenizer. Homogenates were then incubated at room temperature without and with 2.5 mM conduritol-B-epoxide (CBE) for 30 min. Finally, 3.7 mM 4-methylumbeliferryl-β-glucoside (4-MUG) substrate was added and incubated at 37° C. for 60 min. Reactions were stopped by addition of 0.4 M glycine, pH 10.6. Fluorescence was measured on a plate reader for 1 sec/well using 355 nm excitation and 460 nm emission. Total protein was determined in lysates using the MicroBCA kit according to the manufacturer's instructions. A 4-methylumbelliferone (4-MU) standard curve ranging from 1.0 nM to 50 μM was run in parallel for conversion of raw fluorescence data to absolute GCase activity (in the presence and absence of CBE) and expressed as nanomoles of 4-MU released per milligram of protein per hour (nmol/mg protein/hr). GCase levels and protein levels were calculated using Microsoft Excel (Redmond, Wash.) and GraphPad Prism version 4.02.

Series [2] deals with T1, GCase (Mus musculus, UniProt P17439).
T1 construct: Liver, spleen, lung, and brain tissues were removed; from tissue; host or cells: brain, spleen, liver, lung of C57BL/6 mice
T1 sequence (P17439 20-515): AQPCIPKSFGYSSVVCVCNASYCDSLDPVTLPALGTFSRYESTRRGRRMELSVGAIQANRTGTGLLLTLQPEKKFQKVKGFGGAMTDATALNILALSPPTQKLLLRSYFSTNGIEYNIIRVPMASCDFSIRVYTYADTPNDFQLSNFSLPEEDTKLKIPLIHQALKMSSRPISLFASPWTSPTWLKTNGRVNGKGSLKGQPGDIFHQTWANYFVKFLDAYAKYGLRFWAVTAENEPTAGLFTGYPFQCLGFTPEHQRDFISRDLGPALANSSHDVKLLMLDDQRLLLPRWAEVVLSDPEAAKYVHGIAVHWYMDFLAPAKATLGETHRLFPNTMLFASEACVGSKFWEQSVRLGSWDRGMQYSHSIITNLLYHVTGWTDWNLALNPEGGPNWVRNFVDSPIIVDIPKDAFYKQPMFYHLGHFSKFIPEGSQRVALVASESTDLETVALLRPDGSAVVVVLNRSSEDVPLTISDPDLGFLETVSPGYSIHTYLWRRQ
As to the kind of experiment: GCase enhancement in tissues of orally dosed mice. The series is classed as in vivo, mice (C57BL/6). Conditions: for GCase increase: nine doses over 2 weeks, 24-hour washout. On the procedure: as §1, §2

Series [3] addresses T2, GCase (Homo sapiens, UniProt P04062).
T2 sequence (P04062 40-536): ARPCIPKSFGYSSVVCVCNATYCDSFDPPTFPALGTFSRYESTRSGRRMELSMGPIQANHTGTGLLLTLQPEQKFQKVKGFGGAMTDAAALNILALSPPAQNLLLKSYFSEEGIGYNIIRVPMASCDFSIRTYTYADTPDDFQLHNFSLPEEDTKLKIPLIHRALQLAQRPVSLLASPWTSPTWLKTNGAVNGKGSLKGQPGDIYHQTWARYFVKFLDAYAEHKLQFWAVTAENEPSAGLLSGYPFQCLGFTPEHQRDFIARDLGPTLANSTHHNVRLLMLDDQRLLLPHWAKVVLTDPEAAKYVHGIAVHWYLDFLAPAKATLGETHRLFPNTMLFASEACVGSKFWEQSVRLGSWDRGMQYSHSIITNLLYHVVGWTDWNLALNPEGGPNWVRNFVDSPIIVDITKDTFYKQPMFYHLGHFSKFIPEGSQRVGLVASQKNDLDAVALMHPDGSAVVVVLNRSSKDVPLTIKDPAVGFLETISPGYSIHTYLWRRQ
As to the kind of experiment: Concentration-dependent increase in GCase activity (EC50, Emax). The conditions noted are these: result in words. The series is classed as cell-based.

Another series deals with T3, lysosomal GCase (Homo sapiens, UniProt P04062).
T3 construct: assayed in situ using fibroblasts established from a normal subject; endogenous in cells; host or cells: fibroblasts from a normal subject
T3 sequence (P04062 40-536): T2 sequence (P04062 40-536)
As to the kind of experiment: In situ washout assay in fibroblasts (recovery of lysosomal GCase activity after compound removal). It is filed as cell-based. The conditions noted are these: fibroblasts treated at IC90 for 16-24 hours, then drug-free medium; single exponential fit. On the procedure: Cells seeded in 48-well plates were incubated with the indicated concentrations of compound for 16-24 hours. For the dose-response assays, cells were incubated with the in situ substrate 5-(pentafluorobenzoylamino)fluorescein di-β-D-glucopyranoside (PFBFDβGlu) for 1 hour and subsequently lysed to determine the extent of substrate hydrolysis in the presence of compound. […] Inhibition was determined as the ratio of activity in the presence of compound to that in the absence of compound. […] Cells were washed extensively and incubated in drug-free medium to allow net compound efflux from cells. Cells were then tested for lysosomal GCase activity at 2 hour intervals over a total period of 8 hours following compound removal. The increase in activity over time was fitted with a single exponential function to determine the compound's washout time.

Series [4] in a line: Blood brain barrier penetration after oral administration to mice. The series is classed as in vivo, mice (C57BL/6). Conditions: single 30 mg/kg (free base equivalent) p.o. dose, FIGS. 1A-C. On the procedure: For this purpose, 8-week old wild-type male mice (C57BL/6) were administered a single 30 mg/kg (free base equivalent) p.o. dose of reference or test compound by gavage (n=3 mice per time point). Dosing solutions were prepared in water. After dosing, mice were euthanized with CO2 at the following time points: 0-, 0.5-, 1-, and 4-hour post-dose. […] Similarly, brains were collected from each mouse. Plasma was derived by spinning whole blood at 2700 g for 10 minutes at 4° C. followed by storage on dry ice. Whole brains were washed in cold PBS to remove contaminating blood, blotted dry, flash frozen on dry ice, and ultimately stored at −80° C. until analysis. To prepare brain samples for analysis, 50-100 mg of tissue was homogenized in […]. Samples were then clarified by centrifugation. Next, 25 μl of the brain homogenate supernatant or 25 μl of plasma were combined with 25 μl of acetonitrile:water (95/5). […] Between 20 and 30 μl sample was injected for analysis. […] When Compound B was analyzed, Compound A was used as internal standard (150.1/130.1). For calculating drug concentrations, raw data for plasma (ng/mL) and brain (ng/g) was converted to nM using the molecular weight of respective compounds and assuming 1 g of tissue is equivalent to 1 mL volume. Concentration as a function of time was plotted in GraphPad Prism version 4.02.

Where [5] appears, read: brain, 10 mg/kg (free base equivalent) p.o.
Setting [6] is: spleen, 10 mg/kg (free base equivalent) p.o.
Where [7] appears, read: mice, nine p.o. doses over 2 weeks, result in words.

A word on the melting point: it is the temperature of the solid-liquid transition.

“And” between values parts separate entries of the source, which are not always exact repeats. Identical values can stand only once.

Consider `OC[C@H]1CNC[C@@H](O)[C@@H]1O` [IFG, (3R,4R,5R)-5-(hydroxymethyl)-3,4-piperidinediol], for which the “Concentration in GCase assays after dilution (value in parenthesis)” value in series [1] (brain sample, 10 mg/kg p.o.) is 0.2 nM; in series [1] (brain sample, 100 mg/kg p.o., 100 mg/kg) it was 0.7 nM and 1.1 nM; in series [1] (spleen sample, 10 mg/kg p.o.), 0.5 nM; in series [1] (spleen sample, 100 mg/kg p.o., 100 mg/kg), 2.6 nM and 4.2 nM. Also, the Concentration in series [1] (brain, 10 mg/kg p.o.) was 49 ± 2.4 nM; in series [1] (brain, 100 mg/kg p.o., 100 mg/kg) it was 182 ± 13 nM and 287 ± 74 nM; in series [1] (plasma, 10 mg/kg p.o.), 67 ± 10 nM; in series [1] (spleen, 10 mg/kg p.o.), 150 ± 12 nM; in series [1] (spleen, 100 mg/kg p.o., 100 mg/kg), 711 ± 100 nM and 1139 ± 220 nM. The GCase increase on GCase [2] (setting [5]) was 1.5 -fold; on GCase [2] (brain, 100 mg/kg (free base equivalent) p.o., 100 mg/kg) it was 2.2 -fold and 2.1 -fold; on GCase [2] (setting [6]), 1.6 -fold; at GCase [2] (spleen, 100 mg/kg (free base equivalent) p.o., 100 mg/kg), 1.9 -fold and 2.0 -fold.
`Cl.O[C@@H]1[C@H](CF)CNC[C@H]1O` [Compound A-HCl, (3R,4R,5R)-5-(fluoromethyl)piperidine-3,4-diol hydrochloride]: the melting point fell in the range of 200 to 202 °C. On GCase [3], the “effect on GCase activity” value was “concentration-dependent increase in GCase activity” and the “enhancement of enzyme activity compared to IFG-tartrate” value is reported as “enhanced enzyme activity to the same maximum level at much lower concentration”. Moreover, the “In Situ Washout” value at lysosomal GCase is 6.6 ± 0.12 h. On GCase [2] (setting [7]), the “GCase enhancement at lower doses compared to IFG-tartrate” value was “unexpectedly greater than that observed with IFG-tartrate even when far lower doses”; the “GCase enhancement in brain, spleen, liver and lung compared to control or IFG-tartrate” value is “statistically significant greater GCase enhancement in brain, spleen, liver and lung as compared to mice administered control or IFG-tartrate”.
In the case of `O[C@@H]1[C@H](CF)CNC[C@H]1O` [Compound A, (3R,4R,5R)-5-(fluoromethyl)piperidine-3,4-diol], the “Concentration in GCase assays after dilution (value in parenthesis)” value amounted to 0.5 nM in series [1] (brain sample, 10 mg/kg p.o.); 3 nM in series [1] (brain sample, 100 mg/kg p.o.); 0.3 nM in series [1] (spleen sample, 10 mg/kg p.o.); 1.1 nM in series [1] (spleen sample, 100 mg/kg p.o.). For the same compound, in series [4], the “blood brain barrier crossing compared to IFG” value is “crossed the blood brain barrier more readily as compared to IFG”. The GCase increase on GCase [2] (setting [5]) was 2.5 -fold; on GCase [2] (brain, 100 mg/kg (free base equivalent) p.o.), 3.5 -fold; at GCase [2] (setting [6]) it was 1.9 -fold; at GCase [2] (spleen, 100 mg/kg (free base equivalent) p.o.), 2.8 -fold.

The values above are taken from patent US8940766B2, “Methods for preventing and/or treating lysosomal storage disorders” (Amicus Therapeutics, Inc., priority 2009, dated 2015).
